Laboratory results: patent US10076511B2, “Bisamide derivative of dicarboxylic acid as an agent for stimulating tissue regeneration and recovery of diminished tissue function” (TREAMID GmbH, priority 2015, dated 2018)

Columns and labels:
male rats [1] = format: in vivo, rat; settings: Day 45 and Day 65
Protocol: (§1) The latter was simulated by a single injection of cytostatic drug Paclitaxel (Mitotax, Dr. Reddy's, India) to male rats (3 months of age). The choice of the drug was due to the fact that it is one of the medications that damage the precursors of spermatogenesis—stem cells.
Paclitaxel was administered to the animals of the control and test groups once intravenously at the maximum tolerated dose of 7.6 mg/kg. Treamid was administered to the animals of the experimental groups intragastrically at a dose of 5 mg/kg in the form of a suspension in 2% starch mucus for 15 days a month after the administration of Paclitaxel. The control animals received an equivalent volume of the solvent (2% starch mucus), instead of the test compound. […]
On Day 1 (in 24 hours), as well as on Day 45 and Day 65 after the administration of Paclitaxel, the animals were euthanized, and the preparations of their testes were made. Further, the content of progenitor cells of spermatogenesis in the testes was determined by an in vitro cloning method. […] Then, the nonadherent fraction of cells was collected, and the number of cells (cells/ml) was counted in the Goriaev chamber. […] After the incubation, the number of colony-forming units, spermatogenic (CFU-Sp)—clusters of more than 30 cells of round shape and of various diameters—was counted. […]

male rats [2] = format: in vivo, rat; settings: Day 65
Protocol: as §1
Paclitaxel was administered to the animals of the control and test groups once intravenously at the maximum tolerated dose of 7.6 mg/kg. Treamid was administered to the animals of the experimental groups intragastrically at a dose of 5 mg/kg in the form of a suspension in 2% starch mucus for 15 days a month after the administration of Paclitaxel. The control animals received an equivalent volume of the solvent (2% starch mucus), instead of the test compound.
The colony-stimulating activity of the cells of the microenvironment of spermatogenic tissue (production of humoral regulators of spermatogenesis by Sertoli cells) was determined as follows. The above-described procedure was used to prepare a testis homogenate from which an adherent fraction of cells was isolated. The adherent cells were cultured for 24 hours in complete culture medium at 37° C., 5% CO2 and 100% air humidity. A day later, the supernatant was collected, which was stored at a temperature of […]. The level of humoral factors of spermatogenesis in the supernatant was tested by the test system of CFU-Sp of the testes of intact rats. […]

male C57BL/6 mice [3] = experiment: Streptozotocin-induced pancreatic lesion model; format: in vivo, mouse; parameters: The number of piconized cells per islet (pixel): unit not given here
Protocol: The study was performed on male C57BL/6 mice of 4 week old. Pancreatic damage was induced by intraperitoneal injection of streptozotocin at a dose of 40 mg/kg in 0.25 ml of phosphate buffer every day for 5 days [Szkudelski T. The Mechanism of Alloxan and Streptozotocin Action in B Cells of the Rat Pancreas//Physiological Research.—2001.—Vol. 50.—P. 536-546].
Treamid at a dose of 1 mg/kg was administered daily intragastrically once daily on Days 7-20 of the study.
On Days 0, 6, 10, 13, 16, 19, 21, 24, and 28 of the study, blood glucose was determined. The blood glucose level was determined after four-hour deprivation of feed with a glucometer (SencoCard glucometer, “77 Electronics Kft”, Hungary).
On Day 28 of the study, the animals were euthanized in a CO2 chamber, the pancreas was subjected to a morphological examination, and the pancreatic homogenate was studied on an enzyme-linked immunosorbent assay for common collagen and type I collagen.
For morphological study, a part of the pancreas adjacent to the spleen was fixed in 10% formalin and poured into paraffin. Deparaffined sections of the gland were stained with hematoxylin and eosin. On the sections, the area of 10 serial islets of Langerhans was determined by graphic computer analysis, and the total number of cells and the number of pyknotized cells were counted therein. Then, the number of cells per unit islet area and the percentage of the pyknotized cells were calculated.
Inflammatory cells (neutrophils, lymphocytes, macrophages) in the pancreatic tissue and their composition were studied by staining of the histological sections with hematoxylin-eosin and azur-eosin.
The level of mouse type I collagen in a […] was determined by enzyme-linked immunosorbent assay (Cusabio Biotech CO., LTD, China). The lung tissue homogenate was prepared according to the protocol of the manufacturer, Cusabio Biotech CO., LTD (China).
The level of the total collagen in the lung homogenate was determined by using a SIRCOL Collagen Assay kit (Biocolor Ltd, UK) for determining collagen by binding it to a dye and treating with an acid and a solution of pepsin, according to the manufacturer's instructions. The lung tissue homogenate was prepared according to the protocol of manufacturer's test system.

male C57BL/6 mice [4] = experiment: Streptozotocin-induced pancreatic lesion model; format: in vivo, mouse; settings: Day 28; Treamid 1 mg/kg

SMILES: O=C(CCCC(=O)NCCc1ncc[nH]1)NCCc1ncc[nH]1 [Treamid]
- increase in the number of colony-forming cells compared with the cytostatic control (male rats [1]): 44-48%
- increase of the secretory activity of the microenvironment cells compared to the control (male rats [2]): 80%
- The area of the islet tissue (pixel) (male C57BL/6 mice [3]; Day 28, Treamid 1 mg/kg): 635770 ± 56163• pixel
- The number of piconized cells per islet (pixel) (male C57BL/6 mice [3]; Day 28, Treamid 1 mg/kg): 1.75 ± 0.14
- The total number of cells in the islet of Langerhans (×10^4) (male C57BL/6 mice [3]; Day 28, Treamid 1 mg/kg): 109.9 ± 12.6• ×10^4
- blood glucose level (mM/L) (male C57BL/6 mice [3]; Initial level): 5.1 ± 0.1 mM/L
- blood glucose level (mM/L) (male C57BL/6 mice [3]; day 6 after the last administration of streptozotocin (before Treamid, given Days 7-20)): 10.8 ± 0.4 mM/L
- blood glucose level (mM/L) (male C57BL/6 mice [3]; day 10, Treamid 1 mg/kg intragastrically Days 7-20): 11.2 ± 0.2 mM/L
- blood glucose level (mM/L) (male C57BL/6 mice [3]; day 13, Treamid 1 mg/kg intragastrically Days 7-20): 11.6 ± 0.3*• mM/L
- blood glucose level (mM/L) (male C57BL/6 mice [3]; day 16, Treamid 1 mg/kg intragastrically Days 7-20): 10.4 ± 1.4 mM/L
- blood glucose level (mM/L) (male C57BL/6 mice [3]; day 19, Treamid 1 mg/kg intragastrically Days 7-20): 12.0 ± 0.1 mM/L
- blood glucose level (mM/L) (male C57BL/6 mice [3]; day 21, Treamid 1 mg/kg intragastrically Days 7-20): 12.1 ± 0.4*• mM/L
- blood glucose level (mM/L) (male C57BL/6 mice [3]; day 24, Treamid 1 mg/kg intragastrically Days 7-20): 12.2 ± 1.0*• mM/L
- blood glucose level (mM/L) (male C57BL/6 mice [3]; day 28, Treamid 1 mg/kg intragastrically Days 7-20): 12.6 ± 1.1 mM/L
- Total collagen (mg/ml) in the pancreas (male C57BL/6 mice [4]): 41 ± 4 mg/mL
- Type I collagen (ng/ml) in the pancreas (male C57BL/6 mice [4]): 665 ± 55*• ng/ml
